Results reported in patent publication US11986471B2, “Compounds and methods of use” (Tango Therapeutics, Inc., priority 2018, dated 2024).

What was measured:
HAP1 MTAP-deleted = assay: SDMA in-cell western assay, HAP1 MTAP-deleted cell line; assay type: cell-based; conditions: for IC50: Homo sapiens, HAP1 MTAP-deleted cell line; for MTAP Intact/Deleted Ratio: IC50 ratio HAP1 MTAP-intact / HAP1 MTAP-deleted
In short: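 MTAP-null HAP1 cells, the deleted member of an isogenic pair with endogenously MTAP-expressing HAP1, are treated with compound. SDMA is then quantified by in-cell western and an IC50 is calculated.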

HAP1 MTAP-intact = assay: SDMA in-cell western assay, HAP1 MTAP-intact cell line; assay type: cell-based; conditions: Homo sapiens
In short: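 Cells from two matched HAP1 lines, MTAP-null and MTAP-expressing at endogenous levels, are treated with compound. SDMA is then quantified by in-cell western and an IC50 is calculated for each line.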

PRMT5 [1] = target: T1, PRMT5 (Homo sapiens, UniProt O14744); assay: PRMT5 IC50 assay in the presence of SAM as cofactor; assay type: biochemical
T1 construct: purchased Viva (custom protein)
In short: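 Three cofactor conditions tested for PRMT5 inhibition: none, MTA and SAM, each giving an IC50. For conversion to Ki, the MTA-condition IC50 is divided by 13.5 and the SAM-condition IC50 by 1.5, and the two Ki values are expressed as a SAM/MTA ratio.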

PRMT5 [2] = target: T1, PRMT5; assay: PRMT5 IC50 assay with no cofactor; assay type: biochemical; conditions: read-out: No Co-factor IC50
In short: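 Human PRMT5 inhibition, IC50 in μM; cofactor varied (SAM / MTA / none).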

PRMT5 [3] = target: T1, PRMT5; assay: PRMT5 IC50 assay in the presence of MTA as cofactor; assay type: biochemical; conditions: for IC50: PRMT5, MTA as cofactor; for SAM/MTA Ratio: ratio between Ki in the presence of SAM and Ki in the presence of MTA
In short: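 Ki conversion: SAM arm, Ki=IC50/1.5; MTA arm, Ki=IC50/13.5. No-cofactor arm reported as IC50 only. Selectivity expressed as Ki(SAM)/Ki(MTA).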

T1 sequence (O14744 whole entry): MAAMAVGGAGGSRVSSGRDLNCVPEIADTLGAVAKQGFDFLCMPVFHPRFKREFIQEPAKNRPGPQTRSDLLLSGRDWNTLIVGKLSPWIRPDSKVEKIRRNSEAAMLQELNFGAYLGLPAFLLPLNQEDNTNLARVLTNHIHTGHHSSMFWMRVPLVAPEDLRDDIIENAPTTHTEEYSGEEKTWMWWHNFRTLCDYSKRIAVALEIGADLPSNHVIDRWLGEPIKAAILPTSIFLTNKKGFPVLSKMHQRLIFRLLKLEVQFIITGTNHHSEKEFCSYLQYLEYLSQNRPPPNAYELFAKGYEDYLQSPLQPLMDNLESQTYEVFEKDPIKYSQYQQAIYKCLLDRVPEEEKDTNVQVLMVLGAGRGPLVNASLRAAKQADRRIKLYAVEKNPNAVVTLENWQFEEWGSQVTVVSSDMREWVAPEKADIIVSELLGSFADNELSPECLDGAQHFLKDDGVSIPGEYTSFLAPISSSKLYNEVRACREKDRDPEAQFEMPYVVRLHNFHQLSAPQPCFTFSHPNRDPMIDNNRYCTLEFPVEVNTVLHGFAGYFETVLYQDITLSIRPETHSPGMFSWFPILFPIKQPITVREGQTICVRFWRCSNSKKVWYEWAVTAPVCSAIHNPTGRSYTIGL
T1 sequence (Q9BQA1 whole entry partner): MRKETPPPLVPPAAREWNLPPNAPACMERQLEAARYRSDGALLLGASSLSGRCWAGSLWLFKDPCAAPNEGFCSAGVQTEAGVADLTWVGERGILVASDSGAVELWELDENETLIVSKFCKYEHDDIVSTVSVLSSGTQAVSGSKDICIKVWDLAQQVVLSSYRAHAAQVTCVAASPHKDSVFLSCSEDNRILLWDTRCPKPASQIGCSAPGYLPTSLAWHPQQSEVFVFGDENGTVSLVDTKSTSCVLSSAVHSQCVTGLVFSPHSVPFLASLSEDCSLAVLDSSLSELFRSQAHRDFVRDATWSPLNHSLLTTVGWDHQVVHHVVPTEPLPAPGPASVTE

| Compound | IC50 (HAP1 MTAP-deleted) [µM] | IC50 (HAP1 MTAP-intact) [µM] | IC50 (PRMT5 [1]) [µM] | IC50 (PRMT5 [2]) [µM] | IC50 (PRMT5 [3]) [µM] | MTAP Intact/Deleted Ratio (HAP1 MTAP-deleted) | SAM/MTA Ratio (PRMT5 [3]) |
| --- | --- | --- | --- | --- | --- | --- | --- |
| CC(=O)N1CCC(Nc2cc(C(=O)NC[C@H](O)CN3CCc4nc(OCc5cnco5)ccc4C3)ncn2)CC1 [Compound 412, 6-[(1-acetyl-4-piperidyl)amino]-N-[(2S)-2-hydroxy-3-[2-(oxazol-5-ylmethoxy)-7,8-dihydro-5H-1,6-naphthyridin-6-yl]propyl]pyrimidine-4-carboxamide] | ≥ 10 | ≥ 10 | 0.5 to 5 | ≥ 5 | 0.05 to 0.5 | C* (an IC50 ratio of less than 3 fold between the IC50 in the HAP1 MTAP-intact cell line and the HAP1 MTAP-deleted cell line) | A (a Ki ratio greater than or equal to 10 fold between the Ki in the presence of SAM and the Ki in the presence of MTA) |
| O=C(NC[C@H](O)CN1CCc2nc(OCc3cnco3)ccc2C1)c1ccnc(NC2CCC2)c1 [Compound 413, 2-(cyclobutylamino)-N-[(2S)-2-hydroxy-3-[2-(oxazol-5-ylmethoxy)-7,8-dihydro-5H-1,6-naphthyridin-6-yl]propyl]pyridine-4-carboxamide] | ≥ 10 | ≥ 10 | 0.5 to 5 | ≥ 5 | 0.5 to 5 | C* (an IC50 ratio of less than 3 fold between the IC50 in the HAP1 MTAP-intact cell line and the HAP1 MTAP-deleted cell line) | A (a Ki ratio greater than or equal to 10 fold between the Ki in the presence of SAM and the Ki in the presence of MTA) |
| CCCN(C)c1cc(C(=O)NC[C@H](O)CN2CCc3cc(OCc4cnco4)ccc3C2)cc(NC2CCC2)n1 [Compound 415] | < 1 | 1 to 10 | 0.05 to 0.5 | 0.5 to 5 | 0.05 to 0.5 | C* (an IC50 ratio of less than 3 fold between the IC50 in the HAP1 MTAP-intact cell line and the HAP1 MTAP-deleted cell line) | A (a Ki ratio greater than or equal to 10 fold between the Ki in the presence of SAM and the Ki in the presence of MTA) |
| Cc1ncoc1COc1ccc2c(c1)CCN(C[C@@H](O)CNC(=O)c1ccc(OC3CCN(Cc4ccncc4)CC3)cc1)C2 [Compound 416, N-[(2S)-2-hydroxy-3-{6-[(4-methyl-1,3-oxazol-5-yl)methoxy]-1,2,3,4-tetrahydroisoquinolin-2-yl}propyl]-4-{[1-[(pyridin-4-yl)methyl]piperidin-4-yl}oxy)benzamide] | < 1 | < 1 | 0.05 to 0.5 | 0.5 to 5 | 0.05 to 0.5 | C* (an IC50 ratio of less than 3 fold between the IC50 in the HAP1 MTAP-intact cell line and the HAP1 MTAP-deleted cell line) | A (a Ki ratio greater than or equal to 10 fold between the Ki in the presence of SAM and the Ki in the presence of MTA) |
| CN1CCN(c2cc(C(=O)NC[C@H](O)CN3CCc4c(ccc(OCc5cnco5)c4Cl)C3)cc(NC3CCC3)n2)CC1 [Compound 419, (S)—N-(3-(5-chloro-6-(oxazol-5-ylmethoxy)-3N-dihydroisoquinolin-2(1H)-yl)-2-hydroxypropyl)-2-(cyclobutylamino)-6-(4-methylpiperazin-1-yl)isonicotinamide] | ≥ 10 | ≥ 10 | 0.05 to 0.5 | 0.5 to 5 | 0.05 to 0.5 | C* (an IC50 ratio of less than 3 fold between the IC50 in the HAP1 MTAP-intact cell line and the HAP1 MTAP-deleted cell line) | A (a Ki ratio greater than or equal to 10 fold between the Ki in the presence of SAM and the Ki in the presence of MTA) |
| O=C(NC[C@H](O)CN1CCc2c(ccc(OCc3cnco3)c2Cl)C1)c1ccnc(NC2CCCCC2)c1 [Compound 420, (S)—N-(3-(5-chloro-6-(oxazol-5-ylmethoxy)-3N-dihydroisoquinolin-2(1H)-yl)-2-hydroxypropyl)-2-(cyclohexylamino)isonicotinamide] | ≥ 10 | ≥ 10 | 0.05 to 0.5 | 0.5 to 5 | 0.05 to 0.5 | C* (an IC50 ratio of less than 3 fold between the IC50 in the HAP1 MTAP-intact cell line and the HAP1 MTAP-deleted cell line) | A (a Ki ratio greater than or equal to 10 fold between the Ki in the presence of SAM and the Ki in the presence of MTA) |
| O=C(NC[C@H](O)CN1CCc2cc(OCc3cnco3)ccc2C1)c1cc(NC2CCC2)nc(N2CCNCC2)c1 [Compound 422] | 1 to 10 | 1 to 10 | 0.05 to 0.5 | 0.5 to 5 | 0.05 to 0.5 | C* (an IC50 ratio of less than 3 fold between the IC50 in the HAP1 MTAP-intact cell line and the HAP1 MTAP-deleted cell line) | A (a Ki ratio greater than or equal to 10 fold between the Ki in the presence of SAM and the Ki in the presence of MTA) |

More lines, main results first:

| IC50 (HAP1 MTAP-deleted) [µM] | IC50 (HAP1 MTAP-intact) [µM] | IC50 (PRMT5 [1]) [µM] | IC50 (PRMT5 [2]) [µM] | IC50 (PRMT5 [3]) [µM] | Compound | MTAP Intact/Deleted Ratio (HAP1 MTAP-deleted) | SAM/MTA Ratio (PRMT5 [3]) |
| --- | --- | --- | --- | --- | --- | --- | --- |
| < 1 | ≥ 10 | 0.05 to 0.5 | ≥ 5 | 0.05 to 0.5 | Cc1ncoc1COc1ccc2c(c1C)CCN(C[C@@H](O)CNC(=O)c1cc(NC3COC3)nc(N3CCN(C(=O)C4CC4)CC3)n1)C2 [Compound 414, 2-(4-cyclopropanecarbonylpiperazin-1-yl)-N-[(2S)-2-hydroxy-3-{5-methyl-6-[(4-methyl-1,3-oxazol-5-yl)methoxy]-1,2,3,4-tetrahydroisoquinolin-2-yl}propyl]-6-[(oxetan-3-yl)amino]pyrimidine-4-carboxamide] | A* (an IC50 ratio greater than or equal to 10 fold between the IC50 in the HAP1 MTAP-intact cell line and the HAP1 MTAP-deleted cell line) | A (a Ki ratio greater than or equal to 10 fold between the Ki in the presence of SAM and the Ki in the presence of MTA) |
| < 1 | ≥ 10 | 0.05 to 0.5 | 0.5 to 5 | 0.05 to 0.5 | CCC(=O)N1CCN(c2cc(C(=O)NC[C@H](O)CN3CCc4c(ccc(OCc5ocnc5C)c4C)C3)cc(NC3CCC3)n2)CC1 [Compound 417, 2-(cyclobutylamino)-N-[(2S)-2-hydroxy-3-{5-methyl-6-[(4-methyl-1,3-oxazol-5-yl)methoxy]-1,2,3,4-tetrahydroisoquinolin-2-yl}propyl]-6-(4-propanoylpiperazin-1-yl)pyridine-4-carboxamide] | A* (an IC50 ratio greater than or equal to 10 fold between the IC50 in the HAP1 MTAP-intact cell line and the HAP1 MTAP-deleted cell line) | A (a Ki ratio greater than or equal to 10 fold between the Ki in the presence of SAM and the Ki in the presence of MTA) |
| 1 to 10 | ≥ 10 | 0.05 to 0.5 | ≥ 5 | 0.05 to 0.5 | Cc1ncoc1COc1ccc2c(c1C)CCN(C[C@@H](O)CNC(=O)c1ccnc(NC3CCCC3)c1)C2 [Compound 418, 2-(cyclopentylamino)-N-[(2S)-2-hydroxy-3-{5-methyl-6-[(4-methyl-1,3-oxazol-5-yl)methoxy]-1,2,3,4-tetrahydroisoquinolin-2-yl}propyl]pyridine-4-carboxamide] | C* (an IC50 ratio of less than 3 fold between the IC50 in the HAP1 MTAP-intact cell line and the HAP1 MTAP-deleted cell line) | A (a Ki ratio greater than or equal to 10 fold between the Ki in the presence of SAM and the Ki in the presence of MTA) |
| 1 to 10 | ≥ 10 | 0.05 to 0.5 | ≥ 5 | 0.05 to 0.5 | Cc1ncoc1COc1ccc2c(c1C)CCN(C[C@@H](O)CNC(=O)c1cc(NC3COC3)nc(N3CCN(C(=O)C(C)C)CC3)n1)C2 [Compound 421, N-[(2S)-2-hydroxy-3-{5-methyl-6-[(4-methyl-1,3-oxazol-5-yl)methoxy]-1,2,3,4-tetrahydroisoquinolin-2-yl}propyl]-2-[4-(2-methylpropanoyl)piperazin-1-yl]-6-[(oxetan-3-yl)amino]pyrimidine-4-carboxamide] | B* (an IC50 ratio greater than or equal to 3 fold but lower than 10 fold between the IC50 in the HAP1 MTAP-intact cell line and the HAP1 MTAP-deleted cell line) | A (a Ki ratio greater than or equal to 10 fold between the Ki in the presence of SAM and the Ki in the presence of MTA) |
| 1 to 10 | ≥ 10 | 0.5 to 5 | ≥ 5 | 0.05 to 0.5 | Cc1ncoc1COc1ccc2c(c1C)CCN(C[C@@H](O)CNC(=O)c1cc(NC3COC3)nc(N3CCOCC3)n1)C2 [Compound 423, N-[(2S)-2-hydroxy-3-{5-methyl-6-[(4-methyl-1,3-oxazol-5-yl)methoxy]-1,2,3,4-tetrahydroisoquinolin-2-yl}propyl]-2-(morpholin-4-yl)-6-[(oxetan-3-yl)amino]pyrimidine-4-carboxamide] | C* (an IC50 ratio of less than 3 fold between the IC50 in the HAP1 MTAP-intact cell line and the HAP1 MTAP-deleted cell line) | A (a Ki ratio greater than or equal to 10 fold between the Ki in the presence of SAM and the Ki in the presence of MTA) |
